Results reported in ChEMBL document CHEMBL1201862, “PubChem BioAssay data set” (2004).
Where a name gives a salt, the structure may show the parent alone.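 Interpolation was linear, between the two tested concentrations surrounding the appropriate level; five concentrations were tested over 48 hours in 96-well plates. Here, GI50 denotes the concentration required for 50% inhibition of growth.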 Active and inactive are the calls of the source. Cut-off read from the data, not from the text of the source: active = GI50 up to about 1.1 µM and inactive = higher. Starred links: 1 amine or outer side, 2 acyl side, 3 side chain; linkers in the order of their positions; H or OH if unused. Non-standard residues stand in square brackets, D forms with d. Residues, ends and D or L forms follow the SMILES beside them. ξ: configuration not given here. Ile(3ξ) = CCC(C)[C@H](N)C(=O)O; X35 = C=CCC(O[*:1])C(=O)[*:2]; NMeV = CN[C@H](C(=O)O)C(C)C; NMeA = CN[C@@H](C)C(=O)O; βAla = NCCC(=O)O

Legend:
Test in all cases: inhibition of tumour cell growth, NCI panel, 48 h
UACC-257 = tested on: UACC-257
CAKI-1 = tested on: CAKI-1
SF-295 = tested on: SF-295
KM12 = tested on: KM12
K562 = tested on: K562
DLD-1 = tested on: DLD-1
NCI-H460 = tested on: NCI-H460
SNB-75 = tested on: SNB-75
786-0 = tested on: 786-0
HOP-92 = tested on: HOP-92
OVCAR-8 = tested on: OVCAR-8
M14 = tested on: M14
RPMI-8226 = tested on: RPMI-8226
OVCAR-4 = tested on: OVCAR-4
NCI-H522 = tested on: NCI-H522

Measured: GI50

C=CCC1OC(=O)CCNC(=O)[C@H](C)N(C)C(=O)[C@H](C(C)C)N(C)C(=O)[C@H](C(C)CC)NC(=O)[C@@H]2CCCN2C1=O (stereo partly specified) (cyclo([Ile(3ξ)][NMeV][NMeA][βAla][X35]P))
inactive: UACC-257 4.71 µM | CAKI-1 8.93 µM | SF-295 4.41 µM | KM12 8.43 µM | K562 5 µM | DLD-1 10.4 µM | NCI-H460 4.94 µM | SNB-75 > 21.1 µM | 786-0 5.58 µM | HOP-92 8.93 µM | OVCAR-8 16.2 µM | M14 2.61 µM | RPMI-8226 4.91 µM | OVCAR-4 6.75 µM

CS(=O)(=O)Sc1ccc(Cl)cc1
inactive: UACC-257 8.53 µM | CAKI-1 10.7 µM | SF-295 3.04 µM | NCI-H522 3.24 µM | KM12 7.19 µM | K562 10.2 µM | DLD-1 13.9 µM | NCI-H460 10.9 µM | SNB-75 3.21 µM | 786-0 6.32 µM | HOP-92 7.11 µM | OVCAR-8 7.87 µM | M14 12.8 µM | RPMI-8226 10.9 µM | OVCAR-4 13.7 µM

O=C(CCCCCCCCC(=O)OCCCn1cc(C(=O)NC(=O)OCc2ccccc2)c(=O)[nH]c1=O)OCCCn1cc(C(=O)NC(=O)OCc2ccccc2)c(=O)[nH]c1=O
inactive: UACC-257 > 100 µM | CAKI-1 > 100 µM | SF-295 > 100 µM | NCI-H522 > 100 µM | KM12 > 100 µM | K562 > 100 µM | DLD-1 > 100 µM | NCI-H460 > 100 µM | SNB-75 54.1 µM | 786-0 > 100 µM | HOP-92 > 100 µM | OVCAR-8 > 100 µM | M14 > 100 µM | RPMI-8226 > 100 µM | OVCAR-4 > 100 µM

CCCCCC#COC1CC(C)CC[C@@H]1C(C)C (stereo partly specified)
inactive: UACC-257 46.2 µM | CAKI-1 50.8 µM | SF-295 39.2 µM | NCI-H522 24.5 µM | KM12 98.9 µM | K562 27.9 µM | DLD-1 41.3 µM | NCI-H460 23.8 µM | SNB-75 75.9 µM | 786-0 > 100 µM | HOP-92 > 100 µM | OVCAR-8 > 100 µM | M14 > 100 µM | RPMI-8226 26.4 µM | OVCAR-4 > 100 µM

C=CCc1cc(OC)c2c(c1)C(O)CC(c1ccc(OC)c(OC)c1)O2 (stereo unspecified)
inactive: UACC-257 72.4 µM | CAKI-1 73.3 µM | SF-295 > 100 µM | NCI-H522 > 100 µM | KM12 > 100 µM | K562 16.3 µM | DLD-1 > 100 µM | NCI-H460 > 100 µM | SNB-75 89.5 µM | 786-0 > 100 µM | HOP-92 20.6 µM | OVCAR-8 > 100 µM | M14 > 100 µM | OVCAR-4 > 100 µM

CCN(CC)c1ccc(/N=C2\C=C(Cl)C(=O)c3ncccc32)c(C)c1
inactive: UACC-257 2.48 µM | CAKI-1 3.33 µM | SF-295 15.6 µM | K562 2.28 µM | DLD-1 4.06 µM | NCI-H460 6.56 µM | SNB-75 14.4 µM | 786-0 3.08 µM | HOP-92 2.15 µM | OVCAR-8 4.08 µM | M14 2.9 µM | RPMI-8226 3.37 µM | OVCAR-4 5.27 µM

Nc1nc(Cl)c2ncn(CCCC(c3ccccc3)P(=O)(O)O)c2n1 (stereo unspecified)
inactive: UACC-257 > 100 µM | CAKI-1 > 100 µM | SF-295 > 100 µM | NCI-H522 > 100 µM | KM12 > 100 µM | K562 > 100 µM | DLD-1 > 100 µM | NCI-H460 > 100 µM | SNB-75 > 100 µM | 786-0 > 100 µM | HOP-92 > 100 µM | OVCAR-8 > 100 µM | M14 > 100 µM | RPMI-8226 > 100 µM

CN(C)c1nc(Oc2nc(N(C)C)nc(N(C)C)n2)nc(N(C)C)n1
inactive: UACC-257 56.5 µM | CAKI-1 > 100 µM | SF-295 > 100 µM | NCI-H522 70.8 µM | KM12 62.5 µM | K562 59.2 µM | DLD-1 > 100 µM | NCI-H460 > 100 µM | SNB-75 35.9 µM | 786-0 > 100 µM | HOP-92 > 100 µM | OVCAR-8 93.8 µM | M14 > 100 µM | RPMI-8226 63.5 µM | OVCAR-4 > 100 µM

COc1ccc(C2=NN(C(C)=O)c3nc4ccccc4nc3O2)cc1
inactive: UACC-257 50.8 µM | SF-295 26.1 µM | NCI-H522 20.8 µM | KM12 > 100 µM | K562 > 100 µM | DLD-1 25.4 µM | NCI-H460 32.1 µM | SNB-75 6.28 µM | 786-0 15.2 µM | HOP-92 16.4 µM | OVCAR-8 37.3 µM | RPMI-8226 > 100 µM | OVCAR-4 11 µM

C/C(=N\NC(=O)CC#N)c1c(O)cc(C)oc1=O
inactive: UACC-257 > 100 µM | CAKI-1 > 100 µM | SF-295 > 100 µM | KM12 > 100 µM | K562 > 100 µM | DLD-1 > 100 µM | NCI-H460 > 100 µM | SNB-75 > 100 µM | 786-0 > 100 µM | HOP-92 > 100 µM | OVCAR-8 > 100 µM | M14 > 100 µM | OVCAR-4 > 100 µM

O=C1NC2OCC(O)C(O)C2O1 (stereo unspecified)
inactive: UACC-257 > 100 µM | CAKI-1 > 100 µM | SF-295 > 100 µM | NCI-H522 > 100 µM | KM12 > 100 µM | K562 > 100 µM | DLD-1 > 100 µM | NCI-H460 > 100 µM | SNB-75 > 100 µM | 786-0 > 100 µM | HOP-92 > 100 µM | OVCAR-8 > 100 µM | M14 > 100 µM | OVCAR-4 > 100 µM

CC1=NCCc2c1[nH]c1cc(O)ccc21 [HARMALOL HYDROCHLORIDE]
inactive: UACC-257 > 100 µM | CAKI-1 > 100 µM | SF-295 > 100 µM | KM12 > 100 µM | K562 > 100 µM | DLD-1 > 100 µM | NCI-H460 > 100 µM | SNB-75 > 100 µM | 786-0 > 100 µM | HOP-92 > 100 µM | OVCAR-8 > 100 µM | M14 > 100 µM | RPMI-8226 > 100 µM | OVCAR-4 > 100 µM

O=C(O)C12C3CCCC1C2CC3 (stereo unspecified)
inactive: UACC-257 > 100 µM | CAKI-1 > 100 µM | SF-295 > 100 µM | NCI-H522 > 100 µM | KM12 > 100 µM | K562 > 100 µM | DLD-1 > 100 µM | NCI-H460 > 100 µM | SNB-75 > 100 µM | 786-0 > 100 µM | HOP-92 > 100 µM | OVCAR-8 > 100 µM | M14 > 100 µM | RPMI-8226 > 100 µM

Clc1ccc(/N=N/c2nc3ccccc3nc2/N=N/c2ccc(Cl)cc2Cl)c(Cl)c1
inactive: UACC-257 > 100 µM | SF-295 > 100 µM | NCI-H522 60.1 µM | KM12 > 100 µM | K562 44.6 µM | DLD-1 > 100 µM | NCI-H460 > 100 µM | SNB-75 22.9 µM | 786-0 85.5 µM | HOP-92 44 µM | OVCAR-8 > 100 µM | RPMI-8226 > 100 µM | OVCAR-4 > 100 µM
